The numbers were not newly measured in patent publication US9024067B2, “Process for preparing carboxylic acid amides useful in the treatment of muscular disorders” (Canbex Therapeutics Limited, priority 2009, dated 2015), which cites them from elsewhere.

The test system of this series is spasticity in CREAE mice. The following applies: initial studies (WO2005/080316).

With `CC(CO)NC(=O)c1cccc(/C=C\CCCC(=O)N(C)C)c1` (stereo not shown) [VSN-16], the effect on spasticity result is reported as “marked effect on spasticity”.
